In patent publication US10543250B2, “Antimicrobial fusion peptides” (Los Angeles Biomedical Research Institute at Harbor-UCLA …, priority 2015, dated 2020):
“Also recorded” adds a separate entry of the source.

Legend:
[1] = tested on: MDRAB clinical isolate HUMC-1; assay: Neutropenic murine model of MDRAB pneumonia; type: in vivo, Acinetobacter baumannii; conditions: for survival: neutropenic mice, aerosolized MDRAB HUMC-1, treatment for 3d, survival monitored to day 21, peptide 12.5 mg/kg IV qd, imipenem 15 mg/kg IP bid
Procedure: Neutropenic mice (cortisone acetate [250 mg/kg; subQ]+cyclophosphamide [200 mg/kg; IP] on study days-2, +3, and +8) were infected on day 0 (aerosolized; MDRAB clinical isolate HUMC-1; 5×10^8 CFU; lung Cx-positive). Treatment initiated 4 hr or 24 hr post-infection and continued for 3d. Groups:control (PBS); imipenem (15 mg/kg; IP; bid); γ-RP-1 (12.5 mg/kg; IV; qd); γ-RP-1 (12.5 mg/kg; IV; qd). Survival was then monitored to day 21. At end point or 21d, lungs and spleens were cultured. Outcomes were compared by non-parametric analysis. All studies adhered to institutional and AAALAC animal care policies.

MDRAB = assay: Biomatrix assay: efficacy in human blood, plasma or serum; type: cell-based, Acinetobacter baumannii; conditions: human blood ex vivo
Procedure: Efficacies of RP-1 and γ-RP-1 in human blood, plasma, or serum were assessed. Peptide was added to biomatrix simultaneously with MDRAB (final inoculum 10^5 CFU/ml; peptide range […]; volume 100 μl). Controls were performed using Mueller Hinton broth (MHB; CLSI). Following incubation (constant agitation; 2 h, 37° C.), survival was quantified by culture (n=3) upon blood agar and defined as CFU/ml. Independent minimum, n=2.

[2] = tested on: wide panel of Gram-negative human pathogens; assay: Efficacy against panel of Gram-negative human pathogens at pH 5.5 and 7.5 (Example 4); type: cell-based; conditions: compared to any other peptide tested
Procedure: The efficacy of RP-1 and γ-RP-1, along with a number of peptide variants and suitable control, was tested against a wide panel of Gram-negative human pathogens.

3D7 P. falciparum = assay: In vitro antimalarial activity; type: cell-based; conditions: at 12.5 mg/ml after incubation for 96 hour
[3] = tested on: P. berghei ANKA luciferase; assay: In vivo antimalarial efficacy in infected mice; conditions: 12.5 mg/kg, IV treatment daily for 5 days, compared to chloroquine at the same concentration
From the text: FIGS. 15 and 16 show the in vivo antimalarial activity of γ-RP-1 on Luciferase-expressing P. berghei ANKA (FIG. 15: single dose; FIG. 16: double dose). CQ: chloroquine.

[4] = tested on: wide panel of human pathogens; assay: Efficacy of γ-RP-1 variants against panel of human pathogens at pH 5.5 and 7.5 (Example 6); type: cell-based; conditions: pH 5.5 and 7.5, FIG. 16A-B
Procedure: The efficacy of RP-1 and γ-RP-1, along with a number of peptide variants and suitable control, was tested against a wide panel of human pathogens.
In another experiments, the following peptides were tested.

Peptide pI = type: physicochemical
Procedure: Antimicrobial agents: RP-1 (pI/Mw: 10.82/2162.78 Da) is an 18-amino synthetic peptide derived from PF-4 family kinocidins. γ-RP-1 (pI/Mw: 10.64/4444.5 Da) is a 39-amino synthetic peptide comprising a CXCL4 kinocidin γ-core motif-RP-1 construct. Stock peptides dissolved in sterile ddH2O were diluted in suitable buffers. Antibiotics were purchased as purified powder and re-suspended in PBS per the manufacturer guidelines.

`C[C@@H](O)[C@H]1C(=O)N2C(C(=O)O)=C(SCCN=CN)C[C@H]12` [imipenem, reference compound] showed a survival [1] of 16%.

For “γ-RP-1 (CPTAQLIATLKNGRKICLDLQALYKKFKKKLLKSLKRLG)”, the “Total MDRAB burden (CFU) in lungs and spleens, reduction” value ([1]; as compared to control or imipenem treatments alone) was over 2 log CFU, the “efficacy vs. MDRAB in a murine model of neutropenic pneumonia” value ([1]; in vivo) was “significant efficacy” and the survival [1] was 72%. The “efficacy in human blood” value (MDRAB) was “significant efficacy; also recorded: greater efficacy”, the “efficacy against individual organisms and across the broader panel” value [2] was “overall best efficacy” and the “in vitro antimalarial effects, dose-response curve” value (3D7 P. falciparum) was “excellent IC50 curve”. For the same compound, the “antimalarial activity in vivo” value [3] was “moderate antimalarial activity”, the “efficacy compared with RP-1 across bacterial species” value [4] was “higher efficacy than RP-1” and the pI (Peptide pI) was 10.64.
